IC50 and change in vivo data for 21 molecules are collected here from US4906624A, “6-(((Substituted)pyridin-3-yl)alkyl)-and alkenyl)-tetrahydro-4-hydroxypyran-2-one inhibitors of cholesterol biosynthesis” (Warner-Lambert Company, priority 1988, dated 1990).

Where a name gives a salt, the structure may show the parent alone.

In one experiment the test system is sterol synthesis (cholesterol biosynthesis) in rat liver homogenate. As to the kind of experiment: CSI screen: inhibition of sterol/cholesterol synthesis (14C-acetate incorporation into nonsaponifiable lipid) by rat liver homogenate. In kind it is biochemical. The note with it: one-hour period, rats fed 5% cholestyramine for four days, 60 min, read-out: CSI/IC50 (concentration required for 50% inhibition of sterol synthesis). As for the experimental part:
The ability of compounds of the present invention to inhibit the biosynthesis of cholesterol was measured by a method (designated CSI screen) which utilizes the procedure described by R. E. Dugan, et al, Archiv. Biochem. Biophys., (1972), 152, 21-27. In this method, the level of HMG-CoA enzyme activity in standard laboratory rats is increased by feeding the rats a chow diet containing 5% cholestyramine for four days, after which the rats are sacrificed.
The rat livers are homogenized, and the incorporation of […] into nonsaponifiable lipid by the rat liver homogenate is measured. The micromolar concentration of compound required for 50% inhibition of sterol synthesis over a one-hour period is measured, and expressed as an IC50 value.
For the molecule `Cc1cc(-c2ccc(F)cc2)c(/C=C/[C@@H](O)C[C@@H](O)CC(=O)O)c(C(C)C)n1` (relative stereo) [Example 20, [R*,S*-(E)]-7-[4-(4-fluorophenyl)-6-methyl-2-(1-methylethyl)-3-pyridinyl-3,5-dihydroxy-6-heptenoic acid, sodium salt], the IC50 came to 16 nM.

Consider `Cc1cc(-c2ccc(F)cc2)c(/C=C/[C@@H](O)C[C@@H](O)CC(=O)O)c(C(F)(F)F)n1` (relative stereo) [Example 23, [R*,S*-(E)]-7-[4-(4-fluorophenyl)-6-methyl-2-(trifluoromethyl)-3,5-dihydroxy-6-heptenoic acid, monosodium salt], for which the IC50 came out at 50 nM.

As to `O=C(O)C[C@H](O)C[C@H](O)/C=C/c1c(-c2ccc(F)cc2)cc(C(F)F)nc1C(F)(F)F` (relative stereo) [Example 25, [R*,S*-(E)]-7-[6-(difluoromethyl)-4-(4-fluorophenyl)-2-(trifluoromethyl)-3-pyridinyl]-3,5-dihydroxy-6-heptenoic acid, monosodium salt], the IC50 was determined as 71 nM.

As to `CCc1cc(-c2ccc(F)cc2)c(/C=C/[C@@H](O)C[C@@H](O)CC(=O)O)c(CC)n1` (relative stereo) [Example 27, [R*,S*-(E)]-7-[2,6-diethyl-4-4-(fluorophenyl)-3-pyridinyl]-3,5-dihydroxy-6-heptenoic acid, monosodium salt], the IC50 worked out at 32 nM.

As to `Cc1cc(C)c(/C=C/[C@@H](O)C[C@@H](O)CC(=O)O)c(-c2ccc(F)cc2)n1` (relative stereo) [Example 29, [R*,S*-(E)]-7-[2-(4-fluorophenyl)-4,6-dimethyl-3-pyridinyl]-3,5-dihydroxy-6-heptenoic acid, monosodium salt], the IC50 turned out to be 50 nM.

With `CC(C)c1nc(-c2ccccc2)cc(-c2ccc(F)cc2)c1/C=C/[C@@H](O)C[C@@H](O)CC(=O)O` (relative stereo) [Example 31, [R*,S*-(E)]-7-[2-[4-(4-fluorophenyl)-2-(1-methylethyl)-6-phenyl-3-pyridinyl]ethenyl]-3,5-dihydroxy-6-heptenoic acid, monosodium salt], the IC50 turned out to be 58 nM.

Turning to `CCCNC(=O)c1c(C(C)C)nc(C(C)C)c(/C=C/[C@@H](O)C[C@@H](O)CC(=O)O)c1-c1ccc(F)cc1` (relative stereo) [Example 33, [R*,S*-(E)]-7-[4-(4-fluorophenyl)-2,6-bis(1-methylethyl)-5-[(propylamino)carbonyl]-3-pyridinyl]-3,5-dihydroxy-6-heptenoic acid, monosodium salt], the IC50 was 20 nM.

In the case of `CCc1nc(CC)c(C(=O)OC)c(-c2ccc(F)cc2)c1/C=C/[C@@H](O)C[C@@H](O)CC(=O)O` (relative stereo) [Example 35, [R*,S*-(E)]-5-(6-carboxy-3,5-dihydroxy-1-hexenyl)-2,6-diethyl-4-(4-fluorophenyl)-, methyl ester, 3-pyridinecarboxylic acid, monosodium salt], the IC50 stood at 44 nM.

`CCc1nc(CC)c(CO)c(-c2ccc(F)cc2)c1/C=C/[C@@H](O)C[C@@H](O)CC(=O)O` (relative stereo) [Example 37, [R*,S*-(E)]-7-[2,6-diethyl-4-(4-fluorophenyl)-5-(hydroxymethyl)-3-pyridinyl]-3,5-dihydroxy-6-heptenoic acid, monosodium salt]: the IC50 came to 24 nM.

In the case of `COc1c(C)nc(C(C)C)c(/C=C/[C@@H](O)C[C@@H](O)CC(=O)O)c1-c1ccc(F)cc1` (relative stereo) [Example 39, [R*,S*-(E)]-7-[4-(4-fluorophenyl)-5-methoxy-6-methyl-2-(1-methylethyl)-3-pyridinyl]-3,5-dihydroxy-6-heptenoic acid, monosodium salt], the IC50 amounted to 8 nM.

`C=Cc1c(C)nc(C(C)C)c(/C=C/[C@@H](O)C[C@@H](O)CC(=O)O)c1-c1ccc(F)cc1` (relative stereo) [Example 41, [R*,S*-(E)]-7-[5-ethenyl-4-(4-fluorophenyl)-6-methyl-2-(1-methylethyl)-3-pyridinyl]-3,5-dihydroxy-6-heptenoic acid, monosodium salt]: the IC50 is 11 nM.

The next experiment deals with Cholesterol Synthesis. The experiment in a line: AICS screen: inhibition of cholesterol synthesis in rats (plasma [14C]cholesterol after sodium [1-14C]-acetate). In kind it is in vivo. The note with it: Rattus norvegicus, 50 min; 1.0 mg/kg, single dose, oral gavage, male Sprague-Dawley rats fed 5% cholestyramine; acetate one hour after drug, blood after 50 minutes. As for the experimental part: The ability of compounds of the present invention to inhibit the biosynthesis of cholesterol was also measured by a method (designated AICS screen) which utilizes the procedure described by A. W. Alberts et al, Proc. Natl. Acad. Sci., (1980), 77, pp 3957-3961.
In this method male Sprague-Dawley rats (200 g body weight) previously fed 5% cholestyramine for three days were randomly divided into groups (N=5/group) and given a single dose of vehicle (controls) or compound by an oral gavage at the indicated doses. One hour after drug dosing, all rats were injected intraperitoneally with sodium[1-^14 C]-acetate (18.75 μCi/rat in 0.2 ml saline). After 50 minutes, blood samples were taken, plasma obtained by centrifugation, and plasma [^14 C]cholesterol measured after saponification and extraction.
For the molecule `COC(=O)c1c(C(C)C)nc(C(C)C)c(/C=C/[C@@H]2C[C@@H](O)CC(=O)O2)c1-c1ccc(F)cc1` (relative stereo) [Example 13, [2α,4β-(E)]-4-(4-fluorophenyl)-2,6-bis(1-methylethyl)-5-[2-(tetrahydro-4-hydroxy-6-oxo-2H-pyran-2-yl)ethenyl]-3-pyridinecarboxylic acid, methyl ester], the change in vivo at 1 mg/kg is -67%.

Regarding `CC(C)c1cc(-c2ccc(F)cc2)c(/C=C/[C@@H]2C[C@@H](O)CC(=O)O2)c(C(C)C)n1` (relative stereo) [Example 15], the change in vivo at 1 mg/kg is -55%.

Turning to `Cc1cc(-c2ccc(F)cc2)c(/C=C/[C@@H]2C[C@@H](O)CC(=O)O2)c(C(C)C)n1` (relative stereo) [Example 19, [4α,6β(E)]-6-[2-[4-(4-fluorophenyl)-6-methyl-2-(1-methylethyl)-3-pyridinyl]ethenyl]tetrahydro-4-hydroxy-2H-pyran-2-one], the change in vivo at 1 mg/kg is -72%.

On to `Cc1cc(-c2ccc(F)cc2)c(/C=C/[C@@H](O)C[C@@H](O)CC(=O)O)c(C(C)C)n1` (relative stereo) [Example 21, [R*,S*-(E)]-7-[4-(4-fluorophenyl)-6-methyl-2-(1-methylethyl)-3-pyridinyl]-3,5-dihydroxy-6-heptenoic acid, hemicalcium salt], for which the change in vivo at 1 mg/kg is -67%.

As for `Cc1cc(-c2ccc(F)cc2)c(/C=C/[C@@H]2C[C@@H](O)CC(=O)O2)c(C(F)(F)F)n1` (relative stereo) [Example 22, [4α,6β(E)]-6-[2-[4-(4-fluorophenyl)-6-methyl-2-(trifluoromethyl)-3-pyridinyl]ethenyl]tetrahydro-4-hydroxy-2H-pyran-2-one], the change in vivo at 1 mg/kg was -59%.

Take `O=C1C[C@H](O)C[C@@H](/C=C/c2c(-c3ccc(F)cc3)cc(C(F)F)nc2C(F)(F)F)O1` (relative stereo) [Example 24]: the change in vivo at 1 mg/kg is -54%.

`CCc1cc(-c2ccc(F)cc2)c(/C=C/[C@@H]2C[C@@H](O)CC(=O)O2)c(CC)n1` (relative stereo) [Example 26, [4α,6β(E)]-6-[2-[2,6-diethyl-4(4-fluorophenyl)-3-pyridinyl]ethenyl]tetrahydro-4-hydroxy-2H-pyran-2-one]: the change in vivo at 1 mg/kg is -60%.

Staying with this experiment, now noted: Rattus norvegicus, 50 min; 1.5 mg/kg, single dose, oral gavage, male Sprague-Dawley rats fed 5% cholestyramine; acetate one hour after drug, blood after 50 minutes.
Take `COC(=O)c1c(C(C)C)nc(C)c(/C=C/[C@@H]2C[C@@H](O)CC(=O)O2)c1-c1ccc(F)cc1` (relative stereo) [Example 9]: the change in vivo at 1.5 mg/kg is -55%.

Consider `CCOC(=O)c1c(C)nc(C)c(/C=C/[C@@H]2C[C@@H](O)CC(=O)O2)c1-c1ccc(F)cc1` (relative stereo) [Example 11, [4α,6β-(E)]-4-(4-fluorophenyl)-2,6-dimethyl-5-[2-(tetrahydro-4-hydroxy-6-oxo-2H-pyran-2-yl)ethenyl]-, ethyl ester, 3-pyridinecarboxylic acid], for which the change in vivo at 1.5 mg/kg is -41%.

Turning to `Cc1cc(C)c(/C=C/[C@@H]2C[C@@H](O)CC(=O)O2)c(-c2ccc(F)cc2)n1` (relative stereo) [Example 28, [4α,6β(E)]-6-[2-[2-(4-fluorophenyl)-4,6-dimethyl-3-pyridinyl]ethenyl]tetrahydro-4-hydroxy-2H-pyran-2-one], the change in vivo at 1.5 mg/kg was -64%.
